Measurements published in PubChem BioAssay (NCI).
Where “and” joins values, the source holds several entries; their conditions need not be identical. Equal values may be shown once.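 48-hour exposure; five concentrations; linearly interpolated endpoints. GI50: concentration for 50% inhibition of growth. TGI is the concentration that stops growth completely.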

How the values were obtained:
Assay in all cases: inhibition of tumour cell growth, NCI panel, 48 h; in the data active = GI50 below about 0.43 µM; inactive = the rest
786-0 renal = tested on: 786-0 renal
A498 renal = tested on: A498 renal
A549 NSCLC = tested on: A549 NSCLC
ACHN renal = tested on: ACHN renal
CAKI-1 renal = tested on: CAKI-1 renal
CCRF-CEM leukemia = tested on: CCRF-CEM leukemia
COLO 205 colon = tested on: COLO 205 colon
DLD-1 colon = tested on: DLD-1 colon
DMS 114 small cell lung = tested on: DMS 114 small cell lung
DMS 273 small cell lung = tested on: DMS 273 small cell lung
EKVX NSCLC = tested on: EKVX NSCLC
HCC-2998 colon = tested on: HCC-2998 colon
HCT-15 colon = tested on: HCT-15 colon
HL-60(TB) leukemia = tested on: HL-60(TB) leukemia
HOP-18 NSCLC = tested on: HOP-18 NSCLC
HOP-62 NSCLC = tested on: HOP-62 NSCLC
HOP-92 NSCLC = tested on: HOP-92 NSCLC
HT29 colon = tested on: HT29 colon
IGROV1 ovarian = tested on: IGROV1 ovarian
K-562 leukemia = tested on: K-562 leukemia
KM12 colon = tested on: KM12 colon
KM20L2 colon = tested on: KM20L2 colon
LOX IMVI melanoma = tested on: LOX IMVI melanoma
LXFL 529 NSCLC = tested on: LXFL 529 NSCLC
M14 melanoma = tested on: M14 melanoma
M19-MEL melanoma = tested on: M19-MEL melanoma
MALME-3M melanoma = tested on: MALME-3M melanoma
MOLT-4 leukemia = tested on: MOLT-4 leukemia
NCI-H23 lung = tested on: NCI-H23 lung
NCI-H460 lung = tested on: NCI-H460 lung
NCI-H522 lung = tested on: NCI-H522 lung
OVCAR-3 ovarian = tested on: OVCAR-3 ovarian
OVCAR-4 ovarian = tested on: OVCAR-4 ovarian
OVCAR-5 ovarian = tested on: OVCAR-5 ovarian
OVCAR-8 ovarian = tested on: OVCAR-8 ovarian
RPMI-8226 leukemia = tested on: RPMI-8226 leukemia
RXF 393 renal = tested on: RXF 393 renal
SF-268 CNS = tested on: SF-268 CNS
SF-295 CNS = tested on: SF-295 CNS
SF-539 CNS = tested on: SF-539 CNS
SK-MEL-2 melanoma = tested on: SK-MEL-2 melanoma
SK-MEL-28 melanoma = tested on: SK-MEL-28 melanoma
SK-MEL-5 melanoma = tested on: SK-MEL-5 melanoma
SK-OV-3 ovarian = tested on: SK-OV-3 ovarian
SN12C renal = tested on: SN12C renal
SNB-19 CNS = tested on: SNB-19 CNS
SNB-75 CNS = tested on: SNB-75 CNS
SNB-78 CNS = tested on: SNB-78 CNS
SW-620 colon = tested on: SW-620 colon
TK-10 renal = tested on: TK-10 renal
U251 CNS = tested on: U251 CNS
UACC-257 melanoma = tested on: UACC-257 melanoma
UACC-62 melanoma = tested on: UACC-62 melanoma
UO-31 renal = tested on: UO-31 renal
XF 498 CNS = tested on: XF 498 CNS
NCI-H226 lung = tested on: NCI-H226 lung
RXF-631 renal = tested on: RXF-631 renal

NCCCNCCSSC/C=C\CSSCCNCCCN
32.3 µM and 62.5 µM: TGI (CCRF-CEM leukemia)
86.3 µM and 84.5 µM: TGI (HOP-92 NSCLC)
> 100 µM and 93.4 µM: TGI (HOP-62 NSCLC)
> 100 µM and 88.4 µM: TGI (LXFL 529 NSCLC)
inactive: GI50 (A549 NSCLC) > 100 µM and 46.8 µM | GI50 (HOP-62 NSCLC) > 100 µM and 33.2 µM | GI50 (KM20L2 colon) > 100 µM and 38.9 µM | GI50 (RXF 393 renal) 83.3 µM and 30.6 µM | GI50 (SF-295 CNS) 81.3 µM and 39.9 µM | GI50 (SNB-78 CNS) 55 µM and 24.8 µM
> 100 µM: TGI (786-0 renal) | TGI (A498 renal) | TGI (A549 NSCLC) | TGI (ACHN renal) | TGI (CAKI-1 renal) | TGI (COLO 205 colon) | TGI (DLD-1 colon) | TGI (DMS 114 small cell lung) | TGI (DMS 273 small cell lung) | TGI (EKVX NSCLC) | TGI (HCC-2998 colon) | TGI (HCT-15 colon) | TGI (HOP-18 NSCLC) | TGI (IGROV1 ovarian) | TGI (KM20L2 colon) | TGI (LOX IMVI melanoma) | TGI (M14 melanoma) | TGI (M19-MEL melanoma) | TGI (MALME-3M melanoma) | TGI (NCI-H23 lung) | TGI (NCI-H460 lung) | TGI (OVCAR-3 ovarian) | TGI (OVCAR-4 ovarian) | TGI (OVCAR-5 ovarian) | TGI (OVCAR-8 ovarian) | TGI (RPMI-8226 leukemia) | TGI (RXF 393 renal) | TGI (SF-268 CNS) | TGI (SF-295 CNS) | TGI (SF-539 CNS) | TGI (SK-MEL-2 melanoma) | TGI (SK-MEL-28 melanoma) | TGI (SK-MEL-5 melanoma) | TGI (SK-OV-3 ovarian) | TGI (SN12C renal) | TGI (SNB-19 CNS) | TGI (SNB-75 CNS) | TGI (SNB-78 CNS) | TGI (SW-620 colon) | TGI (TK-10 renal) | TGI (U251 CNS) | TGI (UACC-62 melanoma) | TGI (UO-31 renal) | TGI (XF 498 CNS)
42.5 µM and 24.7 µM: TGI (NCI-H522 lung)
62.3 µM and 65.1 µM: TGI (K-562 leukemia)
31.4 µM and 27.5 µM: TGI (HT29 colon)
62 µM and 57.3 µM: TGI (MOLT-4 leukemia)
38.7 µM and 36.3 µM: TGI (KM12 colon)
46.4 µM and 39.1 µM: TGI (HL-60(TB) leukemia)
> 100 µM and 76.8 µM: TGI (UACC-257 melanoma)

O=C(c1nc2ccc(Cl)cc2[nH]c1=O)C(O)c1ccc2c(c1)OCO2 (stereo not given)
94.1 µM: TGI (DMS 114 small cell lung)
> 100 µM: TGI (786-0 renal) | TGI (A498 renal) | TGI (A549 NSCLC) | TGI (ACHN renal) | TGI (CCRF-CEM leukemia) | TGI (COLO 205 colon) | TGI (DLD-1 colon) | TGI (DMS 273 small cell lung) | TGI (EKVX NSCLC) | TGI (HCC-2998 colon) | TGI (HL-60(TB) leukemia) | TGI (HOP-18 NSCLC) | TGI (HOP-62 NSCLC) | TGI (HOP-92 NSCLC) | TGI (HT29 colon) | TGI (IGROV1 ovarian) | TGI (K-562 leukemia) | TGI (KM12 colon) | TGI (KM20L2 colon) | TGI (LOX IMVI melanoma) | TGI (LXFL 529 NSCLC) | TGI (M14 melanoma) | TGI (M19-MEL melanoma) | TGI (MALME-3M melanoma) | TGI (MOLT-4 leukemia) | TGI (NCI-H226 lung) | TGI (NCI-H23 lung) | TGI (NCI-H460 lung) | TGI (NCI-H522 lung) | TGI (OVCAR-4 ovarian) | TGI (OVCAR-5 ovarian) | TGI (OVCAR-8 ovarian) | TGI (RPMI-8226 leukemia) | TGI (RXF 393 renal) | TGI (RXF-631 renal) | TGI (SF-268 CNS) | TGI (SF-295 CNS) | TGI (SK-MEL-2 melanoma) | TGI (SK-MEL-28 melanoma) | TGI (SK-OV-3 ovarian) | TGI (SNB-75 CNS) | TGI (SW-620 colon) | TGI (TK-10 renal) | TGI (U251 CNS) | TGI (UACC-257 melanoma) | TGI (UACC-62 melanoma) | TGI (UO-31 renal) | TGI (XF 498 CNS)
